Results: patent publication US20260083722A1, “BIFUNCTIONAL DEGRADERS COMPRISING ELECTROPHILIC PROTACS THAT ENGAGE DCAF1 AND PHARMACEUTICAL COMPOSITIONS COMPRISING THE SAME” (THE SCRIPPS RESEARCH INSTITUTE, priority 2022, published 2026)

Target: T1, HA-FKBP12 (Homo sapiens, UniProt P62942)
T1 construct: expressed in transfected cells; host or cells: HEK293T
Assay: HA-FKBP12 abundance by Western blotting in transfected HEK293T cells
Assay type: cell-based
Conditions: for time after treatment until evidence of HA-FKBP12 degradation: 2 μM each, FLAG-DCAF1-transfected cells; for lowest concentration with evidence of FKBP12 degradation: HEK293T co-expressing HA-FKBP12 and FLAG-DCAF1; for degradation of FKBP12: cells expressing DCAF1-C1113A mutant; for hook effect in HA-FKBP12 degradation: emerging at 5 μM
From the text: (A) Left, western blots showing concentration-dependent effects of YT47R (upper) and YT41R (lower) on FKBP12 abundance in HEK293T cells expressing HA-FBKP12 with or without co-expression of FLAG-DCAF1. Right, quantification of HA-FKBP12 abundance in the indicated experimental groups. (B) Left, western blots showing effects of YT47R versus YT47S (upper) and YT41R versus YT41S (lower) on FKBP12 abundance in HEK293T cells co-expressing HA-FBKP12 and FLAG-DCAF1. Right, quantification of HA-FKBP12 abundance in the indicated experimental groups. (C) Western blots showing effects of YT47R (left blots) and YT41R (right blots) on FKBP12 abundance in HEK293T cells co-expressing HA-FBKP12 and either FLAG-DCAF1-WT or FLAG-DCAF1-C1113A mutant. Quantification of HA-FKBP12 abundance in the indicated experimental groups is shown in the adjacent bar graphs. For (A-C), FKBP12 abundance was determined at 24 h post-treatment with compounds, and data are mean values±SEM for three independent experiments. Statistical significance was calculated with unpaired two-tailed Student's t-tests comparing YT41R/YT47R- and DMSO-treated cells. ***P<0.001, ****P<0.0001.
(A) Left, western blots showing effects of proteasome (MG132) and Neddylation (MLN4924) inhibitors (1 h pre-treatment) on YT47R- and YT41R-dependent degradation of FKBP12 in HEK293T cells co-expressing HA-FBKP12 and FLAG-DCAF1. FKBP12 abundance was determined at 24 h post-treatment with YT47R or YT41R. Right, quantification of HA-FKBP12 abundance in the indicated experimental groups. (B) Left, western blots showing effects of the FKBP12 ligand SLF (20 μM) or DCAF1 ligand MY-11B (1 h pre-treatment with 20 μM SLF or 5 μM MY-11B) on YT47R- and YT41R-dependent degradation of FKBP12 in HEK293T cells co-expressing HA-FBKP12 and FLAG-DCAF1. FKBP12 abundance was determined at 24 h post-treatment with YT47R or YT41R. Right, quantification of HA-FKBP12 abundance in the indicated experimental groups. (C) Left, western blots showing effects of MY-11A or MY-11B (5 μM, 1 h pre-treatment) on YT47R- and YT41R-dependent degradation of FKBP12 in HEK293T cells co-expressing HA-FBKP12 and FLAG-DCAF1. FKBP12 abundance was determined at 24 h post-treatment with YT47R or YT41R. Right, quantification of HA-FKBP12 abundance in the indicated experimental groups. For (A-C), data are mean values±SEM for three-five independent experiments. Statistical significance was calculated with unpaired two-tailed Student's t-tests comparing YT41R/YT47R- and DMSO-treated cells. ****P<0.0001.
Figure S3. Concentration-dependent degradation of FKBP12 by DCAF1-directed electrophilic PROTACs. Top, western blots showing concentration-dependent effects of YT47R and YT41R on FKBP12 abundance in HEK293T cells co-expressing HA-FBKP12 and FLAG-DCAF1. Data are mean values±SEM for four independent experiments. Statistical significance was calculated with unpaired two-tailed Student's t-tests comparing YT41R/YT47R- and DMSO-treated cells. *P<0.1, **P<0.01, ***P<0.001, ****P<0.0001.
Figure S4. Time-dependent degradation of FKBP12 by DCAF1-directed electrophilic PROTACs. Top, western blots showing time-dependent effects of YT47R and YT41R (2 μM each) on FKBP12 abundance in HEK293T cells co-expressing HA-FBKP12 and FLAG-DCAF1. Data are mean values±SEM for four independent experiments. Statistical significance was calculated with unpaired two-tailed Student's t-tests comparing YT41R/YT47R- and DMSO-treated cells. ****P<0.0001.
We next treated HEK293T cells co-transfected with FLAG epitope-tagged full length DCAF1 (a.a.'s 1-1507) and HA (hemagglutinin) epitope-tagged FKBP12 with a concentration range of YT41R or YT47R and, after 24 h, measured HA-FKBP12 abundance by Western blotting.

[1] = HEK293T cells transfected only with HA-FKBP12, 24 h
[2] = HEK293T co-transfected with FLAG-DCAF1 and HA-FKBP12, 24 h

T1 sequence (P62942 whole entry): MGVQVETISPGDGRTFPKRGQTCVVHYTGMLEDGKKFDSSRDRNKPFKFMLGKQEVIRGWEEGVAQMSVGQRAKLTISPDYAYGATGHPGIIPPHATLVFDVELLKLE

SMILES | time after treatment until evidence of HA-FKBP12 degradation | degradation of HA-FKBP12 [1] | lowest concentration with evidence of FKBP12 degradation | degradation of HA-FKBP12 [2] | degradation of FKBP12 | hook effect in HA-FKBP12 degradation
C=CC(=O)C1C[C@H](c2ccc(C(=O)NCCOCCOCCNC(=O)COc3cccc([C@@H](CCc4ccc(OC)c(OC)c4)OC(=O)[C@@H]4CCCCN4C(=O)C(=O)C(C)(C)CC)c3)cc2)[C@@H]1C(=O)Nc1cccc2cccnc12 (stereo partly drawn) [YT41R] | ~24 h | not | 0.25 µM | Robust concentration-dependent degradation | did not promote the degradation | possible modest hook effect
C=CC(=O)N1C[C@H](c2ccc(C(=O)NCCOCCOCCOCCNC(=O)COc3cccc([C@@H](CCc4ccc(OC)c(OC)c4)OC(=O)[C@@H]4CCCCN4C(=O)C(=O)C(C)(C)CC)c3)cc2)[C@@H]1C(=O)Nc1cccc2cccnc12 [YT47R] | ~24 h | not | 0.25 µM | Robust concentration-dependent degradation | did not promote the degradation | possible modest hook effect
